Experimental data as given in patent US20200331904A1, “3-AMINO-[1,2,4]-TRIAZOLE DERIVATIVES AND THEIR USE FOR CONTROLLING UNDESIRED PLANT GROWTH” (Bayer CropScience Aktiengesellschaft, priority 2017, published 2020).

Assays:
Format in all cases: in vivo
[1] = tested on: Stellaria media; assay: Pre-emergence herbicidal efficacy, STEME
Description: (§1) C.1 Pre-Emergence Herbicidal Action and Crop Plant Compatibility
(§2) Seeds of monocotyledonous and dicotyledonous weed plants and crop plants are placed in plastic or organic planting pots and covered with soil. The compounds of the invention, formulated in the form of wettable powders (WP) or as emulsion concentrates (EC), are then applied onto the surface of the covering soil as aqueous suspension or emulsion with addition of 0.5% additive at a water application rate of […] (converted). After the treatment, the pots are placed in a greenhouse and kept under good growth conditions for the trial plants. After about 3 weeks, the effect of the preparations is scored visually in comparison with untreated controls as percentages. For example, 100% activity=the plants have died, 0% activity=like control plants.
(§3) ABUTH: Abutilon theophrasti ALOMY: Alopecurus myosuroides AMARE: Amaranthus retroflexus AVEFA: Avena fatua CYPES: Cyperus esculentus ECHCG: Echinochloa crus-galli LOLMU: Lolium multiflorum MATIN: Matricaria inodora PHBPU: Ipomoea purpurea POLCO: Polygonum convolvulus SETVI: Setaria viridis STEME: Stellaria media VERPE: Veronica persica VTOTR: Viola tricolor

[2] = tested on: Viola tricolor; assay: Pre-emergence herbicidal efficacy, VIOTR
Description: as §1, §2, §3

[3] = tested on: Veronica persica; assay: Pre-emergence herbicidal efficacy, VERPE; details: Table B2, application rate 320 g/ha, scored visually after about 3 weeks vs untreated controls
Description: as §1, §2, §3

[4] = tested on: Amaranthus retroflexus; assay: Pre-emergence herbicidal efficacy, AMARE; details: Table B2, application rate 320 g/ha, scored visually after about 3 weeks vs untreated controls
Description: as §1, §2, §3

[5] = tested on: Matricaria inodora; assay: Pre-emergence herbicidal efficacy, MATIN
Description: as §1, §2, §3

[6] = tested on: Polygonum convolvulus; assay: Pre-emergence herbicidal efficacy, POLCO; details: Table B2, application rate 320 g/ha, scored visually after about 3 weeks vs untreated controls
Description: as §1, §2, §3

[7] = Table B2, application rate 320 g/ha, scored visually after about 3 weeks vs untreated controls
[8] = application rate 320 g/ha, scored visually after about 3 weeks

SMILES	Herbicidal efficacy against STEME [1, 7] [%]	Herbicidal efficacy against VIOTR [2, 7] [%]	Herbicidal efficacy against VERPE [3] [%]	Herbicidal efficacy against AMARE [4] [%]	Herbicidal efficacy against MATIN [5, 7] [%]	Herbicidal efficacy against POLCO [6] [%]	Herbicidal efficacy against STEME [1, 8] [%]	Herbicidal efficacy against VIOTR [2, 8] [%]	Herbicidal efficacy against MATIN [5, 8] [%]
Cc1ccc2c(c1)C(Nc1nc3n(n1)CCCS3)CCC2 (racemic) [Example I-207]	100	100	100	100	100	100			
Cc1ccc2c(c1)[C@H](Nc1nc3n(n1)CCN(C(=O)C1CCCCC1)C3)CCC2 [Example I-187]	100	100	100	100	90	100			
Cc1ccc2c(c1)[C@H](Nc1nc3n(n1)CCN(S(=O)(=O)C1CCCC1)C3)[C@@H](C)C2 [Example I-193]	100	100	100	100	90	100			
Cc1ccc2c(c1)[C@H](Nc1nc3n(n1)CCN(S(=O)(=O)C1CCCC1)C3)CCC2 [Example I-201]	100	100	100	100	90	100			
Cc1ccc2c(c1)[C@H](Nc1nc3n(n1)CCN(S(=O)(=O)c1ccccc1Cl)C3)CCC2 [Example I-203]	100	100	100	100	90	100			
O=S1(=O)CCCCn2nc(NC3CCc4ccccc43)nc21 (centres unmarked) [Example I-236]							100	100	100
Cc1ccc2c(c1)C(Nc1nc3n(n1)CCCS3(=O)=O)CCC2 (centres unmarked) [Example I-239]	100	100	100	100	100	100			
[O-][S+]1CCCCn2nc(NC3CCc4ccccc43)nc21 (centres unmarked) [Example I-250]	100	100	90	100	100	100	100	100	100
O=S1(=O)CCCCn2nc(NC3CCCc4ccccc43)nc21 (centres unmarked) [Example I-253]	100	100	100	100	100	100	100	100	100
O=C1CCn2nc(NC3CCCc4ccccc43)nc2N1CC1CCCCC1 (centres unmarked) [Example I-271]							90	90	90
CN1C(=O)CCn2nc(NC3CCCc4ccccc43)nc21 (centres unmarked) [Example I-278]	100	100	100	100	100	100	80	90	80
Cc1ccc2c(c1)C(Nc1nc3n(n1)CCCN3S(C)(=O)=O)CC2 (centres unmarked) [Example I-301]	100	100	90	100	100	80			
CS(=O)(=O)N1CCCn2nc(NC3CCCc4ccccc43)nc21 (centres unmarked) [Example I-305]							100	100	100
Cc1ccc2c(c1)C(Nc1nc3n(n1)CCC(=O)N3Cc1ccccc1)CCC2 (centres unmarked) [Example I-315]	90	100	100	80	80				
Cc1ccc2c(c1)C(Nc1nc3n(n1)CCC(=O)N3C(C)C)CCC2 (centres unmarked) [Example I-316]	100	100	100		100	100	100	100	100
CC(=O)N1CCCn2nc(NC3CCc4ccc(C)cc43)nc21 (centres unmarked) [Example I-320]	100	100	100	90	100				
Cc1ccc2c(c1)C(Nc1nc3n(n1)CCCN3S(C)(=O)=O)CCC2 (centres unmarked) [Example I-329]	100	100	100	100	100	100			
O=S(=O)(C1CC1)N1CCCn2nc(NC3CCCc4ccccc43)nc21 (centres unmarked) [Example I-333]	100	100	100	100		100			
Cc1ccc2c(c1)C(Nc1nc3n(n1)CCCN3S(=O)(=O)C1CC1)CC2 (centres unmarked) [Example I-336]	100	100	100	100	100				
CCN1CCn2nc(N[C@@H]3CCCc4ccc(C)cc43)nc2C1 [Example I-343]	100	100	100	100	100				
c1ccc2c(c1)CCC[C@H]2Nc1nc2n(n1)CCCS2 [Example I-349]	100	100	100	100	100	100			
[O-][S+]1CCCn2nc(N[C@@H]3CCCc4ccccc43)nc21 (some centres unmarked) [Example I-361]	100	100	100	100	100	100			
CC1CCc2ccccc2C1Nc1nc2n(n1)CCCCS2(=O)=O (centres unmarked) [Example I-368]	100	100	100	100	100				
